Measurements taken from PMC10813153, “Development of a Novel Covalently Bonded Conjugate of Caprylic Acid Tripeptide (Isoleucine–Leucine–Aspartic Acid) for Wound-Compatible and Injectable Hydrogel to Accelerate Healing” (Biomolecules, 2024).
Entries after “also recorded” stand apart in the source; their conditions may differ. Where a SMILES comes first, the peptide text is derived from it. The star is where a group is joined. Palmitoyl = CCCCCCCCCCCCCCCC(=O)*; Myristoyl = CCCCCCCCCCCCCC(=O)*; Lauroyl = CCCCCCCCCCCC(=O)*; Octanoyl = CCCCCCCC(=O)*

Legend:
[1] = Hydrogel formation, confirmed by vial inversion method; type: physicochemical; conditions: for Gelation Feature: conjugate 1.5% w/v in PBS saline, pH 6.5–7.8, dissolved at pH 9 then readjusted, sonication, vial inversion; for Hydrogel stability when shaken by hand: visual, compared with other conjugates; for Gelation Time: time after the pH was adjusted to 7.4; for Concentration at which hydrogel forms in PBS: PBS buffer, remained a solution below, vial inversion test
Procedure: Lyophilized fatty acid–peptide conjugates were dissolved in phosphate-buffered saline (PBS) at a final concentration of 0.5% (5.0 mg in 1 mL of PBS), 1.5% (15.0 mg in 1 mL of PBS), and 3% (30.0 mg in 1 mL of PBS). The pH of the peptide solutions was increased to 9.0 by adding 0.1 M NaOH to dissolve the compounds and readjusted to pH 2–8 by the drop-wise addition of 0.1 N HCl, followed by sonication. […] The gel formation was confirmed by the vial inversion method, and photographs were taken.

[2] = Gross assessment of toxicity during wound healing test; design: species or system C57BL/6J mice; conditions: mouse, in vivo
Description: The animal use protocol was authorized and approved by the Institutional Animal Care and Use Committee of Louisiana State University Health Sciences Center, New Orleans, and followed the ARRIVE guidelines. Briefly, full-thickness burn wounds (6 mm diameter) were generated in the dorsal skin on both sides along the midline of C57BL/6J mice (female, 18 months old, Jackson Laboratory, Bar Harbor, ME, USA) at 0 days post burn (dpb), similar to the procedures performed by us and others previously. Each treatment group included four mice. […] We monitored mouse health and behavior, including drinking, foraging, grooming, and eating, and we examined all wounds twice per day to ensure that the hydrogel and dressing stayed in place. Wound healing was assessed as described previously. The wounds were photographed, and their areas were calculated using NIH ImageJ software version 1.54d. […] The livers, kidneys, and spleens were also collected, weighed, and measured for size to obtain a gross assessment of toxicity. […] The epithelial gap—i.e., the distance between the neoepithelium emerging from the edges of the wound area—was measured using OLYMPUS OlyVIA software version 3.4.1 (Build 26606), as described previously but with some modifications.

[3] = Hydrogel formation, confirmed by vial inversion method; type: physicochemical; conditions: 1.5% w/v in PBS

| Gelation Feature [1] | Gelation Time ([1]; 1.5% w/v in PBS) | Compound | further results |
| --- | --- | --- | --- |
| did not gelate | – | CC[C@H](C)[C@H](N)C(=O)N[C@@H](CC(C)C)C(=O)N[C@@H](CC(=O)O)C(N)=O [Compound 1] (H-Ile-Leu-Asp-NH2) | – |
| – | – | CCCCCCCC(=O)N[C@H](C(=O)N[C@@H](CC(C)C)C(=O)N[C@@H](CC(=O)O)C(N)=O)[C@@H](C)CC [Compound 2, caprylic acid–isoleucine–leucine–aspartic acid amide conjugate] (Octanoyl-Ile-Leu-Asp-NH2) | Systematic or local toxicity during the wound healing test [2]: did not show systematic or local toxicity; Gel stability at pH 2–8 ([1]; 1.5% w/v in PBS, pH 2–8): gelated and stable; also recorded: formed a hydrogel and stayed gelated; Hydrogel stability when shaken by hand [1]: more stable than either (3) or (4); Gel stability at pH 10 [3]: no gelation |
| – | 6 min | CCCCCCCCCCCC(=O)N[C@H](C(=O)N[C@@H](CC(C)C)C(=O)N[C@@H](CC(=O)O)C(N)=O)[C@@H](C)CC [Compound 3] (Lauroyl-Ile-Leu-Asp-NH2) | Concentration at which hydrogel forms in PBS [1]: ≥ 0.25 % (w/v) |
| – | 10 min | CCCCCCCCCCCCCCCC(=O)N[C@H](C(=O)N[C@@H](CC(C)C)C(=O)N[C@@H](CC(=O)O)C(N)=O)[C@@H](C)CC [Compound 4] (Palmitoyl-Ile-Leu-Asp-NH2) | Concentration at which hydrogel forms in PBS [1]: ≥ 0.25 % (w/v) |
| Hydrogels were formed | 7 min | CCCCCCCCCCCC(=O)N[C@H](C(=O)N[C@@H](CC(C)C)C(=O)N[C@@H](CC(=O)O)C(=O)O)[C@@H](C)CC [Compound 6] (Lauroyl-Ile-Leu-Asp-OH) | Hydrogel stability when shaken by hand [1]: weaker than those formed by Cn acid-ILD-NH2 with the same Cn acid |
| Hydrogels were formed | 10 min | CCCCCCCCCCCCCC(=O)N[C@H](C(=O)N[C@@H](CC(C)C)C(=O)N[C@@H](CC(=O)O)C(=O)O)[C@@H](C)CC [Compound 7] (Myristoyl-Ile-Leu-Asp-OH) | Hydrogel stability when shaken by hand [1]: weaker than those formed by Cn acid-ILD-NH2 with the same Cn acid |
| Hydrogels were formed | 15 min | CCCCCCCCCCCCCCCC(=O)N[C@H](C(=O)N[C@@H](CC(C)C)C(=O)N[C@@H](CC(=O)O)C(=O)O)[C@@H](C)CC [Compound 8] (Palmitoyl-Ile-Leu-Asp-OH) | Hydrogel stability when shaken by hand [1]: weaker than those formed by Cn acid-ILD-NH2 with the same Cn acid |
| – | 2 min | CCCCCCCC(=O)N[C@H](C(=O)N[C@@H](C)C(=O)N[C@@H](CC(=O)O)C(N)=O)[C@@H](C)CC [Compound 9] (Octanoyl-Ile-Ala-Asp-NH2) | – |
| – | 3 min | CCCCCCCC(=O)N[C@H](C(=O)N[C@H](C(=O)N[C@@H](CC(=O)O)C(N)=O)C(C)C)[C@@H](C)CC [Compound 10] (Octanoyl-Ile-Val-Asp-NH2) | – |
| – | 3 min | CCCCCCCC(=O)N[C@@H](C)C(=O)N[C@@H](CC(C)C)C(=O)N[C@@H](CC(=O)O)C(N)=O [Compound 11] (Octanoyl-Ala-Leu-Asp-NH2) | – |
| – | 5 min | CCCCCCCC(=O)N[C@@H](CC(C)C)C(=O)N[C@@H](CC(C)C)C(=O)N[C@@H](CC(=O)O)C(N)=O [Compound 12] (Octanoyl-Leu-Leu-Asp-NH2) | – |
| – | 6 min | CCCCCCCC(=O)N[C@H](C(=O)N[C@@H](CC(C)C)C(=O)N[C@@H](CC(=O)O)C(N)=O)C(C)C [Compound 13] (Octanoyl-Val-Leu-Asp-NH2) | – |
| – | 5 min | CCCCCCCC(=O)N[C@H](C(=O)N[C@H](C(=O)N[C@@H](CC(=O)O)C(N)=O)[C@@H](C)CC)[C@@H](C)CC [Compound 14] (Octanoyl-Ile-Ile-Asp-NH2) | – |
| – | 5 min | CCCCCCCC(=O)N[C@@H](CC(C)C)C(=O)N[C@H](C(=O)N[C@@H](CC(=O)O)C(N)=O)[C@@H](C)CC [Compound 15] (Octanoyl-Leu-Ile-Asp-NH2) | – |

| Compound | Gelation Feature [1] | Gelation Time ([1]; 1.5% w/v in PBS) | further results |
| --- | --- | --- | --- |
| CCCCCCCC(=O)N[C@H](C(=O)N[C@@H](CC(C)C)C(=O)N[C@@H](CC(=O)O)C(=O)O)[C@@H](C)CC [Compound 5] (Octanoyl-Ile-Leu-Asp-OH) | unable to form a hydrogel at all; also recorded: Not gelate | – | – |
